The values that follow come from patent publication US11865111B2, “Antiviral drugs targeting the N-terminal domain (NTD) of the coronavirus spike receptor binding domain (RBD)” (priority 2021, dated 2024).

In data set [1] the test system is SARS-CoV-2 (USA-WA1/2020). The data set can be described thus: microbe, parasite or virus in culture. The data set is classed as cell-based. The conditions noted are these: for SI (selectivity index=CC50/EC50): CC50/EC50, against the SARS-CoV-2 strain.
The nature of data set [2]: in vitro. The conditions noted are these: African green monkey.
Where [3] appears, read: Severe acute respiratory syndrome coronavirus 2, Vero C1008, 32 h, read-out: EC50.
The mark [4] stands for this setting: Severe acute respiratory syndrome coronavirus 2, Vero C1008, 32 h, read-out: EC90.
Setting [5] is: Severe acute respiratory syndrome coronavirus 2, Vero C1008, against the SARS-CoV-2 strain, read-out: EC90 value.

Read-outs that look alike come from different tables or passages of the source.

The EC50 is the midpoint of the concentration-response curve. What is called EC90 is the concentration at which the effect reaches the 90% level.

On to `COC(=O)c1cccc(CNCc2cccc(-c3csc(-c4nc5ccccc5[nH]4)c3)c2)c1` [Compound 1, methyl 3-(((3-(5-(1H-benzo[d]imidazol-2-yl)thiophen-3-yl)benzyl)amino)methyl)benzoate], for which the “SI (selectivity index=CC50/EC50)” value in data set [1] is above 5.30. The EC50 in data set [1] (setting [3]) was determined as 5.66 µM. The EC90 in data set [1] (setting [4]) was 9.5 µM. The molecule also returned a CC50 in data set [2] above 30 µM.
The matching figures for `CNC(=O)c1cccc(CNCc2cccc(-c3csc(-c4nc5ccccc5[nH]4)c3)c2)c1` [Compound 2, 3-(((3-(5-(1H-benzo[d]imidazol-2-yl)thiophen-3-yl)benzyl)amino)methyl)-N-methylbenzamide]: above 4.04, 7.43 µM, 13.1 µM and above 30 µM.
The like results for `COC(=O)c1cccc(CNC(=O)c2cccc(-c3csc(-c4nc5ccccc5[nH]4)c3)c2)c1` [Compound 3, methyl 3-((3-(5-(1H-benzo[d]imidazol-2-yl)thiophen-3-yl)benzamido)methyl)benzoate] were, in that order, above 4.00, 7.5 µM, 12.6 µM and above 30 µM.
The matching figures for `CCOc1cc(CN2CCC(C(=O)Nc3cccc(-c4cccc(F)c4)c3)CC2)ccc1O` [Compound 4, 1-(3-ethoxy-4-hydroxybenzyl)-N-(3′-fluoro-[1,1′-biphenyl]-3-yl)piperidine-4-carboxamide]: above 4.92, 6.1 µM, 10.1 µM and above 30 µM.
Regarding `CCOc1cc(CN2CCC(C(=O)Nc3cccc(-c4cccc(C(F)(F)F)c4)c3)CC2)ccc1O` [Compound 5, 1-(3-ethoxy-4-hydroxybenzyl)-N-(3′-(trifluoromethyl)-[1,1′-biphenyl]-3-yl)piperidine-4-carboxamide], the “SI (selectivity index=CC50/EC50)” value in data set [1] worked out at 3.20. For the same molecule, the EC50 in data set [1] (setting [3]) stood at 4.91 µM. For the same molecule, in data set [1] (setting [4]), the EC90 came out at 7.47 µM. In data set [2], this molecule had a CC50 of 15.6 µM.
The like results for `CCOc1cc(CN2CCC(C(=O)Nc3cccc(-c4cccc(OC)c4)c3)CC2)ccc1O` [Compound 6, 1-(3-ethoxy-4-hydroxybenzyl)-N-(3′-methoxy-[1,1′-biphenyl]-3-yl)piperidine-4-carboxamide] were, in that order, 3.70, 7.16 µM, 11.5 µM and 26.3 µM.
The matching figures for `O=C(Nc1cccc(-c2cccc(Cl)c2)c1)C1CCN(Cc2ccc(O)cc2)CC1` [Compound 7, N-(3′-chloro-[1,1′-biphenyl]-3-yl)-1-(4-hydroxybenzyl)piperidine-4-carboxamide]: 3.36, 6.4 µM, 11 µM and 21 µM.
On to `COc1ccc(CN2CCC(C(=O)Nc3cccc(-c4cccc(Cl)c4)c3)CC2)cc1O` [Compound 8, N-(3′-chloro-[1,1′-biphenyl]-3-yl)-1-(3-hydroxy-4-methoxybenzyl)piperidine-4-carboxamide], for which the “SI (selectivity index=CC50/EC50)” value in data set [1] was determined as 2.48. For the same molecule, the concentration giving a half-maximal response (EC50) in data set [1] (setting [3]) worked out at 6.9 µM. In addition, the EC90 in data set [1] (setting [4]) was 11.7 µM. This molecule also gave a CC50 in data set [2] of 17 µM.
The like results for `CCOc1cc(CN2CCC(C(=O)Nc3cccc(-c4cccc(Cl)c4)c3)CC2)ccc1O` [Compound 9, N-(3′-chloro-[1,1′-biphenyl]-3-yl)-1-(3-ethoxy-4-hydroxybenzyl)piperidine-4-carboxamide] were, in that order, 2.80, 5.8 µM, 8.9 µM and 16 µM.
The like results for `CCOc1cc(CN2CCC(C(=O)Nc3cccc(-c4ccc(Cl)cc4)c3)CC2)ccc1O` [Compound 10, N-(4′-chloro-[1,1′-biphenyl]-3-yl)-1-(3-ethoxy-4-hydroxybenzyl)piperidine-4-carboxamide] were, in that order, 2.65, 6.2 µM, 9.1 µM and 16 µM.
Turning to `COc1cc(C(=O)OCCCN2CCCN(CCCOC(=O)c3cc(OC)c(OC)c(OC)c3)CC2)cc(OC)c1OC` [Dilazep, 3-[4-[3-(3,4,5-trimethoxybenzoyl)oxypropyl]-1,4-diazepan-1-yl]propyl 3,4,5-trimethoxybenzoate, reference compound], in data set [1] (Severe acute respiratory syndrome coronavirus 2, Vero C1008, against the SARS-CoV-2 strain, read-out: EC50 value), the EC50 was found to be 3.89 µM. The EC90 in data set [1] (setting [5]) turned out to be 19.8 µM. In addition, the CC50 in data set [2] was above 30 µM.
Consider `O=C(NC1CCN(CCCCC2(C(=O)NCC(F)(F)F)c3ccccc3-c3ccccc32)CC1)c1ccccc1-c1ccc(C(F)(F)F)cc1` [N-(2,2,2-trifluoroethyl)-9-(4-(4-(4′-(trifluoromethyl)-[1,1′-biphenyl]-2-carboxamido)piperidin-1-yl)butyl)-9H-fluorene-9-carboxamide, reference compound], for which the “SI (selectivity index=CC50/EC50)” value in data set [1] is on record as 5.92. In data set [1] (Severe acute respiratory syndrome coronavirus 2, Vero C1008, against the SARS-CoV-2 strain, unit inferred, read-out: EC50 value), the EC50 was found to be 1.61 µM. Also, in data set [1] (setting [5]), the EC90 stood at 2.83 µM. Besides, the CC50 in data set [2] turned out to be 9.56 µM.
